Results: PubChem BioAssay (NCI)
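Results reflect a 48-hour exposure of cells in 96-well plates to compound at five concentrations. TGI: total growth inhibition.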

Assays:
Experiment in all cases: NCI anticancer screen, dose series, 48 h
HCT-116 colon = tested on: HCT-116 colon
TK-10 renal = tested on: TK-10 renal
SK-OV-3 ovarian = tested on: SK-OV-3 ovarian
SK-MEL-5 melanoma = tested on: SK-MEL-5 melanoma
OVCAR-4 ovarian = tested on: OVCAR-4 ovarian
NCI-H460 lung = tested on: NCI-H460 lung
EKVX NSCLC = tested on: EKVX NSCLC
RPMI-8226 leukemia = tested on: RPMI-8226 leukemia
HT29 colon = tested on: HT29 colon
SK-MEL-2 melanoma = tested on: SK-MEL-2 melanoma
LOX IMVI melanoma = tested on: LOX IMVI melanoma
HS 578T breast = tested on: HS 578T breast
K-562 leukemia = tested on: K-562 leukemia

CN(OC(=O)CC(=O)c1ccccc1)C(=O)Cc1ccccc1
TGI (HCT-116 colon): > 100 µM | TGI (TK-10 renal): > 100 µM | TGI (SK-OV-3 ovarian): > 100 µM | TGI (SK-MEL-5 melanoma): > 100 µM | TGI (OVCAR-4 ovarian): > 100 µM | TGI (NCI-H460 lung): > 100 µM | TGI (EKVX NSCLC): > 100 µM | TGI (RPMI-8226 leukemia): > 100 µM | TGI (HT29 colon): > 100 µM | TGI (SK-MEL-2 melanoma): > 100 µM | TGI (LOX IMVI melanoma): > 100 µM

CC(C)/C(Cl)=N/OC(NC(=O)Nc1ccc(Cl)c(Cl)c1)(C(F)(F)F)C(F)(F)F
TGI (HCT-116 colon): 19.7 µM | TGI (TK-10 renal): 31.2 µM | TGI (SK-OV-3 ovarian): 32.3 µM | TGI (SK-MEL-5 melanoma): 29.3 µM | TGI (OVCAR-4 ovarian): 25.8 µM | TGI (HS 578T breast): 99.4 µM | TGI (NCI-H460 lung): 56.4 µM | TGI (K-562 leukemia): 8.86 µM | TGI (EKVX NSCLC): 38.1 µM | TGI (RPMI-8226 leukemia): 4.7 µM | TGI (HT29 colon): 53.7 µM | TGI (LOX IMVI melanoma): 14.7 µM

COC(=O)C1=C(O)C(C(=O)OC)[C@]2(O)[C@H](C(=O)OC)[C@H]1C[C@@H](c1ccc(O)cc1)[C@H]2C(=O)OC (stereo partly drawn)
TGI (HCT-116 colon): 94.3 µM | TGI (TK-10 renal): 86.4 µM | TGI (SK-OV-3 ovarian): 61.6 µM | TGI (SK-MEL-5 melanoma): > 100 µM | TGI (OVCAR-4 ovarian): > 100 µM | TGI (HS 578T breast): 87.3 µM | TGI (NCI-H460 lung): 74.5 µM | TGI (K-562 leukemia): > 100 µM | TGI (EKVX NSCLC): > 100 µM | TGI (RPMI-8226 leukemia): > 100 µM | TGI (HT29 colon): > 100 µM | TGI (LOX IMVI melanoma): > 100 µM

Nc1nc([O-])c([I+]c2ccccc2)c(=O)[nH]1
TGI (HCT-116 colon): > 100 µM | TGI (TK-10 renal): > 100 µM | TGI (SK-MEL-5 melanoma): > 100 µM | TGI (OVCAR-4 ovarian): > 100 µM | TGI (HS 578T breast): > 100 µM | TGI (NCI-H460 lung): > 100 µM | TGI (K-562 leukemia): > 100 µM | TGI (EKVX NSCLC): > 100 µM | TGI (RPMI-8226 leukemia): > 100 µM | TGI (HT29 colon): > 100 µM | TGI (LOX IMVI melanoma): > 100 µM

Cc1ccc(/C(O)=C/c2nc3ccccc3nc2NC23CC4CC(CC(C4)C2)C3)cc1
TGI (HCT-116 colon): > 10 µM | TGI (TK-10 renal): > 10 µM | TGI (SK-OV-3 ovarian): > 10 µM | TGI (SK-MEL-5 melanoma): > 10 µM | TGI (OVCAR-4 ovarian): > 10 µM | TGI (HS 578T breast): > 10 µM | TGI (K-562 leukemia): > 10 µM | TGI (RPMI-8226 leukemia): > 10 µM | TGI (HT29 colon): > 10 µM | TGI (LOX IMVI melanoma): > 10 µM

COC(=O)/C=C/COCC1C2CCC(=O)C21 (stereo not drawn)
TGI (HCT-116 colon): > 100 µM | TGI (TK-10 renal): > 100 µM | TGI (SK-OV-3 ovarian): > 100 µM | TGI (SK-MEL-5 melanoma): > 100 µM | TGI (OVCAR-4 ovarian): > 100 µM | TGI (NCI-H460 lung): > 100 µM | TGI (K-562 leukemia): > 100 µM | TGI (EKVX NSCLC): > 100 µM | TGI (RPMI-8226 leukemia): > 100 µM | TGI (HT29 colon): > 100 µM | TGI (SK-MEL-2 melanoma): > 100 µM | TGI (LOX IMVI melanoma): > 100 µM

C=CCN1C(=O)/C(=C/c2ccccc2)N=C1SC/C=C/C
TGI (HCT-116 colon): > 100 µM | TGI (TK-10 renal): > 100 µM | TGI (SK-OV-3 ovarian): > 100 µM | TGI (SK-MEL-5 melanoma): 47.6 µM | TGI (OVCAR-4 ovarian): > 100 µM | TGI (HS 578T breast): > 100 µM | TGI (NCI-H460 lung): > 100 µM | TGI (K-562 leukemia): > 100 µM | TGI (RPMI-8226 leukemia): 49 µM | TGI (SK-MEL-2 melanoma): 63 µM | TGI (LOX IMVI melanoma): > 100 µM

O=C(/C=C/c1ccsc1)c1cccs1
TGI (HCT-116 colon): 31.1 µM | TGI (TK-10 renal): > 100 µM | TGI (SK-OV-3 ovarian): > 100 µM | TGI (SK-MEL-5 melanoma): 36.3 µM | TGI (OVCAR-4 ovarian): > 100 µM | TGI (HS 578T breast): > 100 µM | TGI (NCI-H460 lung): > 100 µM | TGI (K-562 leukemia): > 100 µM | TGI (EKVX NSCLC): 99.4 µM | TGI (HT29 colon): > 100 µM

N#Cc1cccc(Nc2ccccc2SSc2ccccc2Nc2cccc(C#N)c2)c1
TGI (HCT-116 colon): 16.5 µM | TGI (TK-10 renal): > 21.5 µM | TGI (SK-OV-3 ovarian): > 21.5 µM | TGI (SK-MEL-5 melanoma): 17 µM | TGI (OVCAR-4 ovarian): > 21.5 µM | TGI (HS 578T breast): > 14.6 µM | TGI (NCI-H460 lung): 12.8 µM | TGI (K-562 leukemia): > 21.5 µM | TGI (EKVX NSCLC): > 21.5 µM | TGI (RPMI-8226 leukemia): 11.5 µM | TGI (HT29 colon): 15.3 µM | TGI (LOX IMVI melanoma): 8.88 µM

COc1c2c(c(OC)c3c(=O)cc(C/C(=N/NC(=O)C[n+]4ccccc4)C(=O)Nc4cc(C)ccc4C)oc13)OCO2
TGI (HCT-116 colon): > 100 µM | TGI (TK-10 renal): > 100 µM | TGI (SK-OV-3 ovarian): > 100 µM | TGI (SK-MEL-5 melanoma): > 100 µM | TGI (OVCAR-4 ovarian): > 100 µM | TGI (NCI-H460 lung): > 100 µM | TGI (K-562 leukemia): > 100 µM | TGI (EKVX NSCLC): > 100 µM | TGI (RPMI-8226 leukemia): > 100 µM | TGI (HT29 colon): > 100 µM | TGI (SK-MEL-2 melanoma): > 100 µM | TGI (LOX IMVI melanoma): > 100 µM

CCCCC1=C(C(=O)N2CCOCC2)C2(OCCO2)C1Cl (stereo not drawn)
TGI (HCT-116 colon): > 100 µM | TGI (TK-10 renal): > 100 µM | TGI (SK-OV-3 ovarian): > 100 µM | TGI (SK-MEL-5 melanoma): 39.6 µM | TGI (OVCAR-4 ovarian): > 100 µM | TGI (HS 578T breast): > 100 µM | TGI (EKVX NSCLC): > 100 µM | TGI (HT29 colon): 78.6 µM | TGI (SK-MEL-2 melanoma): 51.6 µM | TGI (LOX IMVI melanoma): > 100 µM

c1ccc2c(c1)Sc1ccccc1N2CCCN1c2ccccc2Sc2ccccc21
TGI (HCT-116 colon): > 100 µM | TGI (TK-10 renal): > 100 µM | TGI (SK-OV-3 ovarian): > 100 µM | TGI (SK-MEL-5 melanoma): > 100 µM | TGI (OVCAR-4 ovarian): > 100 µM | TGI (HS 578T breast): > 100 µM | TGI (NCI-H460 lung): > 100 µM | TGI (K-562 leukemia): > 100 µM | TGI (EKVX NSCLC): > 100 µM | TGI (HT29 colon): > 100 µM | TGI (LOX IMVI melanoma): > 100 µM

COC1=C(OC)C(=O)c2cc(SC)c(=O)c(SC)cc2C1=O
TGI (HCT-116 colon): 46.3 µM | TGI (TK-10 renal): > 100 µM | TGI (SK-OV-3 ovarian): > 100 µM | TGI (SK-MEL-5 melanoma): 25.9 µM | TGI (OVCAR-4 ovarian): 24.8 µM | TGI (NCI-H460 lung): > 100 µM | TGI (K-562 leukemia): 33.3 µM | TGI (EKVX NSCLC): 48.9 µM | TGI (RPMI-8226 leukemia): 40.2 µM | TGI (HT29 colon): > 100 µM | TGI (SK-MEL-2 melanoma): 15.5 µM | TGI (LOX IMVI melanoma): 16.6 µM

Cc1c2[nH]c3ccc(Br)cc3c2c(C)c2[nH]ccc(=O)c12
TGI (HCT-116 colon): 28.2 µM | TGI (TK-10 renal): 26.9 µM | TGI (SK-MEL-5 melanoma): 64.2 µM | TGI (OVCAR-4 ovarian): 31.3 µM | TGI (NCI-H460 lung): 23.1 µM | TGI (K-562 leukemia): 55.7 µM | TGI (EKVX NSCLC): 33.5 µM | TGI (RPMI-8226 leukemia): 41.5 µM | TGI (HT29 colon): 30.2 µM | TGI (SK-MEL-2 melanoma): 33.8 µM | TGI (LOX IMVI melanoma): 32.7 µM

Cc1nc(C)c(N2CCN(C(=O)NC(CCC(=O)O)C(=O)O)CC2)c(=O)[nH]1 (stereo not drawn)
TGI (HCT-116 colon): > 100 µM | TGI (TK-10 renal): > 100 µM | TGI (SK-OV-3 ovarian): > 100 µM | TGI (OVCAR-4 ovarian): > 100 µM | TGI (HS 578T breast): > 100 µM | TGI (NCI-H460 lung): > 100 µM | TGI (K-562 leukemia): > 100 µM | TGI (EKVX NSCLC): > 100 µM | TGI (RPMI-8226 leukemia): > 100 µM | TGI (HT29 colon): > 100 µM | TGI (LOX IMVI melanoma): > 100 µM

CCCOP1(=O)C=C(C)C(Cl)=C(C)C1 (stereo not drawn)
TGI (HCT-116 colon): 47.5 µM | TGI (TK-10 renal): 63.9 µM | TGI (SK-OV-3 ovarian): > 100 µM | TGI (SK-MEL-5 melanoma): 55.3 µM | TGI (OVCAR-4 ovarian): 86.7 µM | TGI (NCI-H460 lung): > 100 µM | TGI (K-562 leukemia): > 100 µM | TGI (EKVX NSCLC): > 100 µM | TGI (RPMI-8226 leukemia): 35.5 µM | TGI (HT29 colon): 49.3 µM | TGI (SK-MEL-2 melanoma): 32.2 µM | TGI (LOX IMVI melanoma): 36.1 µM

COC(=O)CC(SCCO)SCCO
TGI (HCT-116 colon): > 100 µM | TGI (TK-10 renal): > 100 µM | TGI (SK-OV-3 ovarian): > 100 µM | TGI (SK-MEL-5 melanoma): > 100 µM | TGI (OVCAR-4 ovarian): > 100 µM | TGI (HS 578T breast): > 100 µM | TGI (NCI-H460 lung): > 100 µM | TGI (K-562 leukemia): > 100 µM | TGI (EKVX NSCLC): > 100 µM | TGI (RPMI-8226 leukemia): > 100 µM | TGI (HT29 colon): > 100 µM | TGI (LOX IMVI melanoma): > 100 µM

CC(SC(=S)N1CCCC1)C(=O)Nc1nnc(-c2ccc(Cl)cc2)o1 (stereo not drawn)
TGI (HCT-116 colon): 50 µM | TGI (TK-10 renal): > 100 µM | TGI (SK-OV-3 ovarian): > 100 µM | TGI (SK-MEL-5 melanoma): 82.8 µM | TGI (OVCAR-4 ovarian): > 100 µM | TGI (HS 578T breast): > 100 µM | TGI (NCI-H460 lung): > 100 µM | TGI (K-562 leukemia): 78.7 µM | TGI (RPMI-8226 leukemia): 44.8 µM | TGI (HT29 colon): 51 µM | TGI (SK-MEL-2 melanoma): > 100 µM | TGI (LOX IMVI melanoma): 54.8 µM

CN1NC2=NCCN=C3NN(C)C(=NCCN=C1S2)S3
TGI (HCT-116 colon): > 100 µM | TGI (SK-MEL-5 melanoma): > 100 µM | TGI (OVCAR-4 ovarian): > 100 µM | TGI (NCI-H460 lung): > 100 µM | TGI (K-562 leukemia): > 100 µM | TGI (EKVX NSCLC): > 100 µM | TGI (RPMI-8226 leukemia): > 100 µM | TGI (HT29 colon): > 100 µM | TGI (LOX IMVI melanoma): > 100 µM
